Test results published in US20260198495A1, “BINARY INSECTICIDE COMPOSITION AND USE THEREOF” (SHENYANG SINOCHEM AGROCHEMICALS R & D CO., LTD., priority 2022, published 2026).

What was measured:
Type in all cases: in vivo
[1] = tested on: adult Tetranychus cinnabarinus (Boisduval); experiment: Joint toxicity of I-72 + spirodiclofen, potted-seedling spraying, Example 25, Table 25; details: Tetranychus cinnabarinus, A = compound I-72, B = spirodiclofen, 72 hours, read-out: LC50
Method: (§1) Test target: adult Tetranychus cinnabarinus (Boisduval), a sensitive strain reared indoors.
(§2) Preparation of the pesticide solution: according to different test requirements, the test samples were accurately weighed respectively with an electronic analytical balance. The technical pesticides were dissolved in acetone, and then diluted with 0.1% Tween 80 water into a series of pesticide solutions with a certain concentration gradient according to the experimental design dosage.
(§3) Experimental method: the activity of the mixture against the adult Tetranychus cinnabarinus (Boisduval) was determined by adopting the potted-seedling spraying method. First, the adult Tetranychus cinnabarinus of uniform size were transferred onto the leaves of kidney bean seedlings at the stage when the first pair of true leaves was fully expanded. After the adult mites had stabilized, the base number was counted. Then, the uniform spraying was performed with the pesticide solution in the order from low to high dose according to the experimental design, with 1.5 mL for each seedling and 3 replicates for each treatment. […]
(§4) The treated test materials were placed in an observation room, and the temperature, humidity and illumination of the observation room could be adjusted as needed. […] Then, the co-toxicity coefficient of each ratio was calculated using the Sun Y-P method to evaluate the mixing effect, as in Example 1.

[2] = tested on: Unaspis yanonensis Kuwana nymphs; experiment: Joint toxicity of I-72 + afidopyropen, Example 76, Table 76; details: Unaspis yanonensis, foliar; A = compound I-72, B = afidopyropen; citrus leaf dipping; 120 hours; read-out: LC50
Method: Test target: Unaspis yanonensis Kuwana nymphs.
as §2
Experimental method: the activity of the mixture against Unaspis yanonensis Kuwana nymphs on citrus was determined by adopting the dipping method. First, the collected citrus leaves with Unaspis yanonensis Kuwana nymphs were treated with the pesticide solution in the order from low dosage to high dosage according to the experimental design. After air-drying, the petioles were kept moist with degreased cotton, and then the leaves were placed in a Petri dish, with 3 replicates for each treatment. In addition, a blank control was set up.
as §4, with “needed. The number of dead and live insects was investigated 120 hours later.” for “needed.”, “effect (the same” for “effect,”, “1).” for “1.”

[3] = tested on: Aphis gossypii Glover nymphs; experiment: Joint toxicity of I-72 + spiropidion, Example 28, Table 28; details: Aphis gossypii; A = compound I-72, B = spiropidion; cotton leaf spraying; 48 hours; read-out: LC50
Method: (§5) Test target: Aphis gossypii Glover nymphs, a sensitive strain reared indoors.
as §2
(§6) Experimental method: first, cotton leaves with uniform and consistent Aphis gossypii were selected, with about 30-40 insects on each leaf. Then, they were evenly sprayed with the pesticide solution in the order from low dosage to high dosage according to the experimental design, with 1.5 mL for each leaf and 3 replicates for each treatment. In addition, a blank control was set up.
as §4, with “needed. The number of dead and live insects was investigated 48 hours later.” for “needed.”, “effect (the same” for “effect,”, “1).” for “1.”

[4] = tested on: 2nd-instar larvae of Plutella xylostella; experiment: Joint toxicity of I-72 + beta-cypermethrin, Example 43, Table 43; details: in Brassica oleracea, foliar, 72 h
Method: as §2
Experimental method: first, cabbage leaves were selected and dipped in the prepared pesticide solution for 10 s in the order from low dosage to high dosage according to the experimental design. After natural air-drying in the shade, they were placed in a 9-cm-diameter Petri dish with filter paper, and uniform and healthy test insects were introduced, with 10 insects for each treatment and 3 replicates for each treatment. In addition, a blank control was set up.
The treated test materials were placed in an observation room, and the temperature, humidity and illumination of the observation room could be adjusted as needed. The number of dead and live insects was investigated 72 hours later.

[5] = tested on: Aphis gossypii Glover nymphs; experiment: Joint toxicity of I-72 + organophosphorus insecticides, cotton leaf spraying, Example 17, Table 17; details: nymphs, cotton leaf spraying, 48 h, A = compound I-72, B = diazinon, read-out: LC50
Method: as §5, §2
as §6, with “20” for “30-40”
The treated test materials were placed in an observation room, and the temperature, humidity and illumination of the observation room could be adjusted as needed. The number of dead and live insects was investigated 48 hours later. The corrected mortality rate was calculated using the Abbott's formula, and statistical analysis was performed with the DPS data processing software to obtain the toxicity regression equation, LC50 value and 95% confidence limit of each single test pesticide and each mixture of different ratios. Then, the co-toxicity coefficient of each ratio was calculated using the Sun Y-P method to evaluate the mixing effect (the same as in Example 1).

[6] = tested on: adult Tetranychus cinnabarinus (Boisduval); experiment: Joint toxicity of I-72 + fenpropathrin, Example 39, Table 39; details: A = compound I-72, B = fenpropathrin, potted-seedling spraying, 72 hours, read-out: LC50
Method: as §1, §2, §3, §4

[7] = tested on: Nilaparvata lugens (Stal) nymphs; experiment: Joint toxicity of I-72 + imidacloprid, Example 70, Table 70; details: A = compound I-72, B = imidacloprid, potted-seedling spraying, 72 hours, read-out: LC50
Method: Test target: Nilaparvata lugens (Stal) nymphs, a sensitive strain reared indoors.
as §2
Experimental method: the activity of the mixture against the Nilaparvata lugens (Stal) nymphs was determined by adopting the potted-seedling spraying method. First, rice seedlings were planted in culture pots. Uniform spraying was performed with the pesticide solution in the order from low dosage to high dosage according to the experimental design, with 2 mL for each seedling. Then, Nilaparvata lugens nymphs of uniform size were transferred onto the rice seedlings, with 3 replicates for each treatment. In addition, a blank control was set up.
as §4, with “needed. The number of dead and live insects was investigated 72 hours later.” for “needed.”, “effect (the same” for “effect,”, “1).” for “1.”

CN(C(=O)c1ccc2c(c1)OC(F)(F)O2)c1cccc(C(=O)Nc2c(Br)cc(C(F)(C(F)(F)F)C(F)(F)F)cc2OC(F)F)c1F [Compound I-72]
LC50 [1]: 35.1 µg/mL
LC50 [2]: 75.4 µg/mL
LC50 [3]: 3.19 µg/mL
LC50 [4]: 0.0897 µg/mL
LC50 [5]: 2.83 µg/mL
LC50 [6]: 34.1 µg/mL
LC50 [7]: 243 µg/mL
